Data on eleven compounds can be found in article PMC8226449, “In Vitro Evaluation of the Squaramide-Conjugated Fibroblast Activation Protein Inhibitor-Based Agents AAZTA^5.SA.FAPi and DOTA.SA.FAPi” (Molecules, 2021).

Structures are written as SMILES. Read-outs that look alike come from different tables or passages of the source.

Data set [1] can be described thus: Stability of radiolabelled complexes in human serum. The data set is classed as in vitro ADME. The conditions noted are these: human serum (HS), 37 °C. How it is done: (§1) Labeling was carried out with 100–150 MBq gallium-68 in 300 µL of 1 M ammonium acetate (AmAc) buffer pH 5.5 and with 30–40 MBq scandium-44 in 1 mL of 0.25 M AmAc pH 4.0, and aliquots were taken at 1, 3, 5, 10, and 15 min. For lutetium-177, activity of 30–40 MBq in 300 µL of 1 M AmAc pH 5.5 was used, and aliquots were taken at 1, 3, 5, 15, 30, and 60 min. Stability was tested in 500 µL of human serum, phosphate-buffered saline, ethanol, and saline (0.9% isotonic NaCl solution) using ~5 MBq of tracer solution with >95% radiochemical purity. […] HS (human male AB plasma, USA origin) and PBS were purchased from Sigma Aldrich, and 0.9% saline from B. Braun Melsungen AG (Melsungen, Germany).

The nature of data set [2]: Stability of radiolabelled complexes in PBS, saline (NaCl) and ethanol. The data set is classed as physicochemical. As to conditions: PBS and NaCl, 37 °C. How it is done:
as §1

Data set [3] can be described thus: Lipophilicity (logD) by shake-flask method. As to conditions: pH = 7.4, 1-octanol/PBS. The data set is classed as physicochemical. How it is done:
Lipophilicity (logD value) was determined via the “shake-flask” method. For both precursors AAZTA^5.SA.FAPi and DOTA.SA.FAPi logD (pH = 7.4), values were measured for the ^68Ga- and ^44Sc complexes.
Lipophilicity of [^68Ga]Ga-AAZTA^5.SA.FAPi, [^44Sc]Sc-AAZTA^5.SA.FAPi and [^68Ga]Ga-DOTA.SA.FAPi was determined using the “shake-flask” methodology. After reaction of the precursor with the respective radionuclide, the reaction solution was adjusted to pH 7.4 with NaOH. Aliquots of ~5 MBq for the ^68Ga complexes and of ~3 MBq for the ^44Sc-complexed were taken and adjusted to a total volume of 700 μL with PBS (n= 4). 700 μL 1-octanol was added, and the solution was shaken for 2 min (1500 rpm). Afterwards, each tube was centrifuged for 2 min. 400 μL of the octanol- and PBS phases were pipetted in new tubes, and aliquots of each phase (3 µL of the PBS phase and 6 μL of the octanol phase) were measured via radio-TLC. The PBS phases were adjusted to 700 µL, and 700 μL octanol was added to each tube. The procedure was repeated twice. LogD values were calculated as the logarithm of the octanol/PBS ratio.

The target of data set [4] is T1, Recombinant human FAP (Homo sapiens, UniProt Q12884).
T1 construct: made in house
T1 sequence (Q12884 1-760): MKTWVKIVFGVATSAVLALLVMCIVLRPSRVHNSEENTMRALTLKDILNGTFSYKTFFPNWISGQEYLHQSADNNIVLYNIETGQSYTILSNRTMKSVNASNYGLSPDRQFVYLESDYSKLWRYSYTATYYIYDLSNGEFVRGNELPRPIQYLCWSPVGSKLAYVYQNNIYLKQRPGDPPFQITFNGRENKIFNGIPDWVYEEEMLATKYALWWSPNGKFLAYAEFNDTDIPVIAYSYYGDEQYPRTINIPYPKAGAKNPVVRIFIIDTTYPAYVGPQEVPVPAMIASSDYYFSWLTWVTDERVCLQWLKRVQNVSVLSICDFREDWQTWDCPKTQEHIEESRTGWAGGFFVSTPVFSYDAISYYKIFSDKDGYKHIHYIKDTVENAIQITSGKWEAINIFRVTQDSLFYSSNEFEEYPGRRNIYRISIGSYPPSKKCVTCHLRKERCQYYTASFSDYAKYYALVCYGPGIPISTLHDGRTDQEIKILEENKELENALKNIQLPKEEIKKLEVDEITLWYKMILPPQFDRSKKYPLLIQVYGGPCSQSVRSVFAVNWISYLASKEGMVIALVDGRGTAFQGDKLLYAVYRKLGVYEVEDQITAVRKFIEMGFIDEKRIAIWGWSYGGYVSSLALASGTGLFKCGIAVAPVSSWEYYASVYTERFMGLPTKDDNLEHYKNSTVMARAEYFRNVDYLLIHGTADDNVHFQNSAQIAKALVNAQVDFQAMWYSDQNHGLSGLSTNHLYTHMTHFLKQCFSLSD
As to the kind of experiment: FAP inhibition assay (IC50, Z-Gly-Pro-AMC substrate). The data set is classed as biochemical. The conditions noted are these: for Selectivitiy Index (FAP/PREP): ratio of PREP IC50 and FAP IC50; for IC50: mean with standard deviation, n = 3. How it is done: (§2) Enzymes: Recombinant human FAP and PREP were expressed and purified as published. Recombinant human dipeptidyl 9 (DPP9) was purified as described by De Decker et al.. Human dipeptidyl peptidase 4 was purified from seminal plasma as published.
(§3) IC50 measurements and counter-screening: IC50-measurements of the probes for FAP and PREP were carried out as published, using, respectively, Z-Gly-Pro-AMC and Suc-Gly-Pro-AMC as the substrate. IC50 experiments were repeated in triplicate, and the results are presented as mean ± standard deviation. Methods and data fitting were performed as published earlier. Screening against DPP4 and DPP9 was performed at final probe concentrations of 10 µM and 1 µM using Ala-Pro-paranitroanilide (pNA) as the substrate at the respective final concentrations of 25 μM (DPP4) and 150 μM (DPP9) at pH 7.4 (0.05 M HEPES-NaOH buffer with 0.1% Tween-20, 0.1 mg/mL BSA, and 150 mM NaCl). Probes were pre-incubated with the respective enzyme for 15 min at 37 °C; afterwards, the substrate was added, and the velocities of pNA release were measured kinetically at 405 nm for at least 10 min at 37 °C. Measurements were executed using the Infinite 200 (Tecan Group Ltd., Mennendorf, Switzerland), and the Magellan software was used to process the data.

In data set [5] the target is T1, Recombinant human FAP. The arrangement: method as in Moon et al. [24]. As to conditions: mean with standard deviation; ref Moon et al. [24]; cited from earlier work.
Data set [6] concerns the target T2, Recombinant human PREP (Homo sapiens, UniProt P48147).
T2 construct: made in house
T2 sequence (P48147 1-710): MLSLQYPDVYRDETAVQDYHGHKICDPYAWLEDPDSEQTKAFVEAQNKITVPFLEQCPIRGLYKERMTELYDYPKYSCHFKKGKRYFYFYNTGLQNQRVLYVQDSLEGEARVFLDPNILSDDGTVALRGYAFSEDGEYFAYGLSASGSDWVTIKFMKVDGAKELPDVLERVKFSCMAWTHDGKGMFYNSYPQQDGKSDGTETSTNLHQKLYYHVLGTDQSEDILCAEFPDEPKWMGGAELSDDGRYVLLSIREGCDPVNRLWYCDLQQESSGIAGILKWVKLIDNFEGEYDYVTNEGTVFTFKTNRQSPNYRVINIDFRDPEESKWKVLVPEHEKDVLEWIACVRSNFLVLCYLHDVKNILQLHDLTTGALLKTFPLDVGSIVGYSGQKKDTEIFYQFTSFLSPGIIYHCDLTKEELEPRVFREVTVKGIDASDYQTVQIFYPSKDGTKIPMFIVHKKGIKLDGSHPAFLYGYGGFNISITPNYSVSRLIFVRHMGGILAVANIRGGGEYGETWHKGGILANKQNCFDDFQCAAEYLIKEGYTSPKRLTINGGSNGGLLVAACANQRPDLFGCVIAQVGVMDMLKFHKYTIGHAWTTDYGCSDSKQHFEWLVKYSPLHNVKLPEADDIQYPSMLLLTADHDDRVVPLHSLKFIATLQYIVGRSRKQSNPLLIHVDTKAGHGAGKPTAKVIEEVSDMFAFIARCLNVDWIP
The conditions noted are these: mean with standard deviation; ref Moon et al. [24]; cited from earlier work.

For data set [7], the system named is DPPs (DPP4 and DPP9). As to the kind of experiment: Counter-screening against DPP4 and DPP9 (Ala-Pro-pNA substrate). The data set is classed as biochemical, human. As to conditions: screened at 10 µM and 1 µM, reported as >1 µM if remaining activity more than 50% at 1 µM, n = 2. How it is done: as §2, §3
In data set [8] the target is T2, Recombinant human PREP. As to the kind of experiment: PREP inhibition assay (IC50, Suc-Gly-Pro-AMC substrate). The data set is classed as biochemical. The conditions noted are these: mean with standard deviation, n = 3. How it is done: as §2, §3

Turning to `N#C[C@@H]1CC(F)(F)CN1C(=O)CNC(=O)c1ccnc2ccc(OCCCCNc3c(NCCNC(=O)CCCCC4(N(CC(=O)[O-])CC(=O)[O-])CN(CC(=O)[O-])CCN(CC(=O)[O-])C4)c(=O)c3=O)cc12.[44Sc+3]` [[^44Sc]Sc-AAZTA^5.SA.FAPi], the “intact conjugate (stability)” value is above 99% in data set [1] (1 h), above 97% in data set [1] (8 h), above 99% in data set [2] (1 h) and above 99% in data set [2] (8 h). In data set [3], this compound displayed a LogD7.4 of −2.50 ± 0.11.
Regarding `CN(CC(=O)O)C1(CCCCC(=O)NCCNc2c(NCCCCOc3ccc4nccc(C(=O)NCC(=O)N5CC(F)(F)C[C@H]5C#N)c4c3)c(=O)c2=O)CN(CC(=O)O)CCN(CC(=O)O)C1` [DATA^5m.SA.FAPi, reference compound], the “Selectivitiy Index (FAP/PREP)” value in data set [4] is listed as 2113. In addition, the results for the IC50 in data set [5] and in data set [6] were 0.8 ± 0.2 nM and 1700 ± 100 nM, respectively.
As to `N#C[C@@H]1CC(F)(F)CN1C(=O)CNC(=O)c1ccnc2ccc(OCCCCNc3c(NCCNC(=O)CN4CCN(CC(=O)[O-])CCN(CC(=O)[O-])CCN(CC(=O)[O-])CC4)c(=O)c3=O)cc12.[Lu+3]` [[^natLu]Lu DOTA.SA.FAPi], in data set [4], the “Selectivitiy Index (FAP/PREP)” value is listed as 3125. The IC50 is above 1000 nM in data set [7], 0.8 ± 0.2 nM in data set [5] and 2500 ± 400 nM in data set [6].
`N#C[C@@H]1CC(F)(F)CN1C(=O)CNC(=O)c1ccnc2ccc(OCCCCNc3c(NCCNC(=O)CN4CCN(CC(=O)[O-])CCN(CC(=O)[O-])CCN(CC(=O)[O-])CC4)c(=O)c3=O)cc12.[177Lu+3]` [[^177Lu]Lu-DOTA.SA.FAPi]: the “intact conjugate (stability)” value in data set [1] (10 days) is recorded as above 99%; in data set [2] (3 d), above 98%; in data set [2] (10 days) it was above 93%.
With `N#C[C@@H]1CC(F)(F)CN1C(=O)CNC(=O)c1ccnc2ccc(OCCCCNc3c(NCCNC(=O)CCCCC4(N(CC(=O)[O-])CC(=O)[O-])CN(CC(=O)[O-])CCN(CC(=O)[O-])C4)c(=O)c3=O)cc12.[Lu+3]` [[^natLu]Lu-AAZTA^5.SA.FAPi], the IC50 in data set [4] is 0.55 ± 0.04 nM; in data set [8], 3200 ± 600 nM; in data set [7], above 1000 nM. In addition, the “Selectivitiy Index (FAP/PREP)” value in data set [4] was 5818.
On to `N#C[C@@H]1CC(F)(F)CN1C(=O)CNC(=O)c1ccnc2ccc(OCCCCNc3c(NCCNC(=O)CCCCC4(N(CC(=O)[O-])CC(=O)[O-])CN(CC(=O)[O-])CCN(CC(=O)[O-])C4)c(=O)c3=O)cc12.[Sc+3]` [[^natSc]Sc-AAZTA^5.SA.FAPi], for which the values for the IC50 in data set [4], in data set [8] and in data set [7] were 0.57 ± 0.04 nM, 3600 ± 800 nM and above 1000 nM, respectively. Further, the “Selectivitiy Index (FAP/PREP)” value in data set [4] was determined as 6316.
For the compound `N#C[C@@H]1CC(F)(F)CN1C(=O)CNC(=O)c1ccnc2ccc(OCCCCNc3c(NCCNC(=O)CN4CCN(CC(=O)[O-])CCN(CC(=O)[O-])CCN(CC(=O)[O-])CC4)c(=O)c3=O)cc12.[44Sc+3]` [[^44Sc]Sc-DOTA.SA.FAPi], the “intact conjugate (stability)” value in data set [1] (8 h) and in data set [2] (8 h) was above 97% throughout.
On to `N#C[C@@H]1CC(F)(F)CN1C(=O)CNC(=O)c1ccnc2ccccc12` [UAMC1110-FAP inhibitor, reference compound], for which the IC50 in data set [7] was above 10000 nM.
`N#C[C@@H]1CC(F)(F)CN1C(=O)CNC(=O)c1ccnc2ccc(OCCCCNc3c(NCCNC(=O)CN4CCN(CC(=O)[O-])CCN(CC(=O)[O-])CCN(CC(=O)[O-])CC4)c(=O)c3=O)cc12.[Ga+3]` [[^natGa]Ga-DOTA.SA.FAPi]: in data set [4], the “Selectivitiy Index (FAP/PREP)” value is given as 6214. Moreover, the results for the IC50 in data set [7], in data set [5] and in data set [6] were above 1000 nM, 1.4 ± 0.2 nM and 8700 ± 900 nM, respectively.
For `N#C[C@@H]1CC(F)(F)CN1C(=O)CNC(=O)c1ccnc2ccc(OCCCCNc3c(NCCNC(=O)CCCCC4(N(CC(=O)[O-])CC(=O)[O-])CN(CC(=O)[O-])CCN(CC(=O)[O-])C4)c(=O)c3=O)cc12.[177Lu+3]` [[^177Lu]Lu-AAZTA^5.SA.FAPi], the “intact conjugate (stability)” value in data set [1] (1 h) is given as above 99%; in data set [1] (3 h), above 98%; in data set [1] (1 d), above 83%; in data set [1] (2 d) it was above 64%; in data set [1] (3 d) it was above 55%; in data set [2] (2 d), above 99%. Further, the “intact conjugate (stability)” value is on record as above 98% in data set [2] (3 d) and above 95% in data set [2] (10 days).
With `N#C[C@@H]1CC(F)(F)CN1C(=O)CNC(=O)c1ccnc2ccc(OCCCCNc3c(NCCNC(=O)CCCCC4(N(CC(=O)O)CC(=O)O)CN(CC(=O)O)CCN(CC(=O)O)C4)c(=O)c3=O)cc12` [AAZTA^5.SA.FAPi], the results for the half-inhibitory concentration (IC50) in data set [4], in data set [8] and in data set [7] were 0.56 ± 0.02 nM, 2400 ± 400 nM and above 1000 nM, respectively. For the same compound, the “Selectivitiy Index (FAP/PREP)” value in data set [4] is recorded as 4286.
